Reference: patent US20200093776A1, “MUCOSAL IMMUNOSTIMULATOR” (Yamada Bee Company, Inc., priority 2015, published 2020)

Columns and labels:
Caco-2 cells [1] = experiment: M-cell differentiation induction test, FACS analysis using GP2 as an indicator; type: cell-based, human; details: Caco-2 single-layer film, final concentration 100 μM, cultured 3 days; for expression of GP2 (FACS): vs DMSO control
Procedure: (§1) As an in vitro M-cell model, Caco-2 cells derived from human intestinal epithelium cells were used. The Caco-2 cells were cultured in an EMEM medium (produced by Nissui Pharmaceutical Co., Ltd.) supplemented with 2% fetal calf serum (FCS, produced by CANSERA INTERNATIONAL), 2 mM glutamine (produced by Wako Pure Chemical Industries, Ltd.), and 0.1 mM nonessential amino acid (produced by Gibco) at 37° C. in the presence of 5% CO2. The cells were subcultured within a range of logarithmic growth (2.0×10^5 to 1.0×10^6 cells/mL). The cell concentration was determined by counting the number of living cells and the number of dead cells by the trypan blue staining method.
The induction of the differentiation of M cells by various fatty acids (10-hydroxydecanoic acid, (+/−)-3-hydroxydecanoic acid, (9R)-9,10-dihydroxydecanoic acid, and 10-hydroxy-2-(E)-decenoic acid) was analyzed by FACS using GP2 as an indicator. As the 10-hydroxydecanoic acid (10HDAA), one produced by SIGMA-ALDRICH was used; as the (+/−)-3-hydroxydecanoic acid (311DAA), one produced by SIGMA-ALDRICH was used; and as the 10-hydroxy-2-(E)-decenoic acid (10-HDA), one produced by Wako Pure Chemical Industries, Ltd. was used. The (9R)-9,10-dihydroxydecanoic acid (DDA-11) used was, synthesized based on the method described in Tetrahedron: Asymmetry, 2009, 20, pp. 457-460, by tosylating (4R)-4-(2-hydroxyethyl)-2,2-dimethyl-1,3-dioxolane, and extending the chain with 5-bromo-1-pentene by a Grignard reaction, followed by ozone degradation, Wittig reaction with diethylphosphonic acid ethyl ester, hydrogenation by a catalytic hydrogenation reaction, removal of acetonide by acetic acid treatment, and removal of the ethyl group by potassium hydroxide treatment.
Each of the above fatty acids was prepared as a DMSO solution (10 mM). After the Caco-2 cells were seeded in a 6-well plate and allowed to form a single-layer film, each of the above fatty acids was added so that the final concentration was […]. The same amount of DMSO was added as a control. The medium was as described above. After addition, the cells were cultured at 37° C. in the presence of 5% CO2 for 3 days. After culture, the cells were collected with 1 mM EDTA.2Na/PBS(−) (pH 7.2), and stained with rabbit anti-GP2 antibody (produced by IMGENEX) and Alexa 488-labeled anti-rabbit antibody (produced by Molecular probes). The stained cells were analyzed by FACS (produced by BECKMAN COULTER), and GP2 expression levels were quantified.

Caco-2 cells [2] = experiment: M-cell differentiation induction test, morphological analysis by electron microscope; type: cell-based, human; details: Caco-2 in Transwell insert, 100 μM applied from the apical side, 3 days
Procedure: as §1
After the Caco-2 cells were seeded at 2×10^5 cells in a Transwell insert ([…] Transwell, produced by Corning) and allowed to form a single-layer film, 10-hydroxydecanoic acid (final concentration: […]) was applied from the apical side of the single-layer film, and the cells were cultured at 37° C. in the presence of 5% CO2 for 3 days.

cynomolgus monkeys = system: cynomolgus monkeys; design: species or system Macaca fascicularis; details: cynomolgus monkey, in vivo, po

SMILES	expression of GP2 (FACS) (Caco-2 cells [1])	cell morphology (microvilli, M cell-like cells) (Caco-2 cells [2])	intensity of induction of GP2 expression compared with (+/−)-3-hydroxydecanoic acid (Caco-2 cells [1])	anti-Fetuin IgA antibody titer in the feces (cynomolgus monkeys)	anti-influenza virus IgA antibody titer in the feces (cynomolgus monkeys)	anti-poliovirus IgA antibody titer in the feces (cynomolgus monkeys)
CCCCCCCC(O)CC(=O)O (racemic) [(+/−)-3-hydroxydecanoic acid]	induced the expression of GP2	–	–	–	–	–
O=C(O)/C=C/CCCCCCCO [10-hydroxy-2-(E)-decenoic acid, reference compound]	did not induce the expression of GP2	–	–	–	–	–
O=C(O)CCCCCCCCCO [10-hydroxydecanoic acid]	induced the expression of GP2	cells with short microvilli were observed	induced more intensely the expression of GP2	increases	increases	increases
O=C(O)CCCCCCC[C@@H](O)CO [(9R)-9,10-dihydroxydecanoic acid, reference compound]	did not induce the expression of GP2	–	–	–	–	–
